How the values were obtained:
[1] = system: spontaneously hypertension rats (SHRs); assay: chronic experiment: blood pressure, heart rate and aorta histology after 14-day oral administration in SHRs; type: in vivo, rat; details: for DBP: 14 days (SHRs 130 ± 5); for MAP: 14 days (SHRs 151 ± 5); for SBP: 14 days (SHRs 172 ± 6)
Description: The SHRs were surgically implanted with a catheter via the left femoral artery, vein, and stomach after anesthetizing with 2% pentobarbital sodium (40 mg kg^−1 i.p.,). A pressure sensor was inserted into the terminal of the arterial catheter and connected to a PowerLab system (ADInstruments, New South Wales, Australia) for real-time blood pressure monitoring.
All three MDAs (BAC, BMC, and BHC) were purchased from Nature-Standard Co., Ltd. (Shanghai, China) and their purities were all over 98%. The anti-hypertensive effects of MDAs were studied in both acute and chronic experiments. The 16-week-old SHRs were used in animal experiments, and each group had six rats. In the acute experiment, drug administration was via i.v. injection. For i.v. injection, the animals were randomly assigned into four groups: vehicle (0.1% DMSO–0.9% salt solution, n = 6), low-dose group (0.6 mg kg^−1 body weight, n = 6), medium-dose group (2 mg kg^−1 body weight, n = 6), and high-dose group (6 mg kg^−1 body weight, n = 6). The drug was administered using a venous catheter. In chronic experiments, the animals were randomly assigned into five groups: vehicle (5% Tween 80–0.9% salt solution, n = 6), captopril group (5 mg kg^−1 body weight, n = 6), low-dose group (3 mg kg^−1 body weight, n = 6), medium-dose group (10 mg kg^−1 body weight, n = 6), and high-dose group (30 mg kg^−1 body weight, n = 6). Oral administration with drug or 5% Tween 80–0.9% salt solution was carried out once a day, and continued for 14 days. The drugs were dissolved in 0.1% DMSO–0.9% salt solution for intravenous injection and in 5% Tween 80–0.9% salt solution for oral administration. Blood pressure was recorded in real time.
Real-time blood pressure level was monitored after drug treatment in the acute and chronic experiments. All animals were surgically implanted with a catheter in the left femoral artery. After connection to the monitor, all animals were placed at room temperature of 25°C for 0.5–1 h and the average blood pressure value was calculated based on a real-time blood pressure curve (10 s of every 30 s).
After euthanizing the rats with sodium pentobarbital (100 mg kg^−1, i.p.) administration in combination with isoflurane inhalation, the aortas were harvested directly according to a previously described method. The aortas were fixed in 4% paraformaldehyde for 24 h and embedded in paraffin. The cross-sections (5 μm) were stained with hematoxylin and eosin or subjected to immunostaining. Immunofluorescence staining for ACE and ACE2 was performed according to the manufacturer’s instructions (Servicebio, Wuhan, China).

ACE = ACE protein expression in HUVECs (Western blot, immunofluorescence); type: cell-based, human; details: 24 h
Description: Human umbilical vein endothelial cells (HUVECs) were isolated from umbilical cords as previously described ([Jaffe et al., 1973]). They were purchased from ATCC (cat# CRL-1444, Manassas, VA, United States) and cultured in endothelial cell medium (ECM, ScienCell, Carlsbad, CA, United States) supplemented with 5% FBS, 1% endothelial cell growth supplement, and 1% antibiotics (Sigma, St. Louis, MO, United States). Cells harvested between the third and tenth passages were used in the experiments. Cells were cultured until they were ∼80% confluent. […]
After treatment with different concentrations of BAC (Control, DMSO, 25, 50, and 100 μM, dissolved in 0.1% DMSO–DMEM) for 24 h, the cells were washed with PBS three times, fixed in 4% paraformaldehyde for 20 min, permeabilized with 0.3% Triton X-100 for 20 min, and then blocked with 5% BSA for 30 min at room temperature of 25°C. […] The samples were analyzed using a confocal laser scanning microscope (Zeiss LSM 510 META, Oberkochen, Germany).
The cell samples and tissue sample were collected and placed in ice rapidly. […] Protein concentration in cell lysates was measured using a Bio-Rad DC Protein Assay Kit […]. […]

## CCN1CC2(COC)C(O)CC(OC)C34C5CC6(O)C(OC)C(O)C(O)(C5C6OC(=O)c5ccccc5)C(C(OC)C23)C14 (centres unmarked) [BAC, Benzoylaconitine]
[1]; oral 3 mg kg^−1 once a day, 14 days
  blood pressure versus vehicle group: did not significantly differ
[1]; oral 10 mg kg^−1 once a day
  DBP: 119 ± 8 mmHg
  MAP: 136 ± 7 mmHg
  SBP: 154 ± 6 mmHg
[1]; oral 30 mg kg^−1 once a day, 14 days
  heart rate: reduce the heart rate
[1]; oral 30 mg kg^−1 once a day
  DBP: 101 ± 7 mmHg
  MAP: 121 ± 6 mmHg
  SBP: 139 ± 6 mmHg
[1]; oral administration, 14 days
  vascular smooth muscle thickness (hematoxylin and eosin stain of aorta): reverse smooth muscle remodeling
ACE; HUVECs, 25, 50, 100 μM
  protein expression of ACE: inhibit the expression of ACE
ACE; HUVECs, BAC 100 μM with or without proteasome inhibitor MG132 20 or 40 nM
  ACE protein degradation: promote ACE protein degradation

— article PMC8963105, “A Novel Modulator of the Renin–Angiotensin System, Benzoylaconitine, Attenuates Hypertension by Targeting ACE/ACE2 in Enhancing Vasodilation and Alleviating Vascular Inflammation” (Frontiers in Pharmacology, 2022)
